Question: For `COC[C@@H](NC(=O)c1sc(Nc2ccccc2OC)nc1C)c1ccccc1` [Compound 149, 2-(2-methoxy-phenylamino)-4-methyl-thiazole-5-carboxylic acid ((S)-2-methoxy-1-phenyl-ethyl)-amide], which melting point is on record?
Answer: 118.8 to 129.6 °C

Question: For `Cc1nc(Nc2ccncc2)sc1C(=O)N[C@H]1CCC[C@@H]1OCc1ccccc1` [Compound 153, 4-methyl-2-(pyridin-4-ylamino)-thiazole-5-carboxylic acid ((1S,2S)-2-benzyloxycyclopent-1-yl) amide], which melting point is on record?
Answer: 78.1 to 81.7 °C

Question: For `COc1ccccc1Nc1nc(C)c(C(=O)NCc2ccccc2OC(F)(F)F)s1` [Compound 157, 2-(2-methoxy-phenylamino)-4-methyl-thiazole-5-carboxylic acid 2-trifluoromethoxy-benzylamide], which melting point is on record?
Answer: 76.1 to 80.2 °C

Question: With `Cc1nc(Nc2ccc(N3CCOCC3)cc2)sc1C(=O)N[C@H]1CCC[C@@H]1OCc1ccccc1` [Compound 92, 4-methyl-2-(4-morpholin-4-yl-phenylamino)-thiazole-5-carboxylic acid ((1S,2S)-2-benzyloxycyclopent-1-yl) amide] as the compound, how does the melting point read?
Answer: 192.5 to 194.9 °C

Question: Which melting point does the source give for `COc1ccccc1Nc1nc(C)c(C(=O)Cc2ccccc2)s1` [Compound 79, 1-[2-(2-methoxy-phenylamino)-4-methyl-thiazol-5-yl]-2-phenyl-ethanone] here?
Answer: 131.7 to 140.6 °C

Question: Which melting point does the source give for `COc1ccccc1Nc1nc(C)c(C(=O)NCc2cccc(OC(F)(F)F)c2)s1` [Compound 158, 2-(2-methoxy-phenylamino)-4-methyl-thiazole-5-carboxylic acid 3-trifluoromethoxy-benzylamide] here?
Answer: 96.1 to 100.3 °C

Question: Which melting point does the source give for `CC[C@H](NC(=O)c1sc(Nc2ccccc2OC)nc1C)c1ccccc1` [Compound 132, 2-(2-methoxy-phenylamino)-4-methyl-thiazole-5-carboxylic acid ((S)-1-phenyl-propyl)-amide] here?
Answer: 66.5 to 70.4 °C

Question: Which melting point does the source give for `COc1ccccc1Nc1nc(C)c(C(=O)N2CCCC2c2ccc(F)cc2)s1` (stereo not shown) [Compound 177, [2-(4-fluoro-phenyl)-pyrrolidin-1-yl]-[2-(2-methoxy-phenylamino)-4-methyl-thiazol-5-yl]-methanone] here?
Answer: 94.4 to 106.6 °C

Question: For `COc1ccccc1Nc1nc(C)c(C(=O)N2CCC(c3ccc(C)cc3)CC2)s1` [Compound 168, [2-(2-methoxy-phenylamino)-4-methyl-thiazol-5-yl]-[4-p-tolyl-piperidin-1-yl]-methanone], which melting point is on record?
Answer: 187.7 to 191.5 °C

Question: With `COc1ccccc1Nc1nc(C)c(C(=O)NC2CCN(Cc3ccccc3)C2)s1` (stereo not shown) [Compound 215, 2-(2-methoxy-phenylamino)-4-methyl-thiazole-5-carboxylic acid (1-benzyl-pyrrolidin-3-yl) amide] as the compound, how does the melting point read?
Answer: 112.6 to 121.6 °C

Question: With `COC(=O)[C@@H](NC(=O)c1sc(Nc2ccccc2OC)nc1C)c1ccccc1` [Compound 152, (S)-{[2-(2-methoxy-phenylamino)-4-methyl-thiazole-5-carbonyl]-amino}-phenyl-aceticacid methyl ester] as the compound, how does the melting point read?
Answer: 133.5 to 135.7 °C

Question: Which melting point does the source give for `COc1ccccc1Nc1nc(C)c(C(=O)NCc2ccc(C(=O)N(C)C)cc2)s1` [Compound 137, 2-(2-methoxy-phenylamino)-4-methyl-thiazole-5-carboxylic acid 4-dimethylcarbamoyl-benzylamide] here?
Answer: 219.1 to 226.7 °C

Question: With `COc1ccccc1Nc1nc(C)c(C(=O)NCc2cccc(-c3ccccc3)c2)s1` [Compound 144, 2-(2-methoxy-phenylamino)-4-methyl-thiazole-5-carboxylic acid (biphenyl-3-ylmethyl)-amide] as the compound, how does the melting point read?
Answer: 126.6 to 128.3 °C

Question: Which melting point does the source give for `COc1ccccc1Nc1nc(C)c(C(=O)N(Cc2ccccc2)c2ccccc2)s1` [Compound 216, 2-(2-methoxy-phenylamino)-4-methyl-thiazole-5-carboxylic acid benzyl-phenyl-amide] here?
Answer: 167.2 to 170 °C

Question: Which melting point does the source give for `COc1ccccc1Nc1nc(C)c(C(=O)NCc2ccc(OC(F)(F)F)cc2)s1` [Compound 159, 2-(2-methoxy-phenylamino)-4-methyl-thiazole-5-carboxylic acid 4-trifluoromethoxy-benzylamide] here?
Answer: 135.2 to 138.9 °C

Question: With `COc1ccccc1Nc1nc(C)c(C(=O)NCc2ccc(F)c(C(F)(F)F)c2)o1` [Compound 223, 2-(2-methoxy-phenylamino)-4-methyl-oxazole-5-carboxylic acid 4-fluoro-3-trifluoromethyl-benzylamide] as the compound, how does the melting point read?
Answer: 71.6 to 84.3 °C

Question: With `COc1ccccc1Nc1nc(C)c(C(=O)NCc2ccc3c(c2)OCO3)s1` [Compound 162, 2-(2-methoxy-phenylamino)-4-methyl-thiazole-5-carboxylic acid (benzo[1,3]dioxol-5-ylmethyl)-amide] as the compound, how does the melting point read?
Answer: 166 to 167.4 °C

Question: With `COc1ccccc1Nc1nc(C)c(C(=O)NC(C)c2ccccc2)s1` (stereo not shown) [Compound 130, 2-(2-methoxy-phenylamino)-4-methyl-thiazole-5-carboxylic acid (1-phenyl-ethyl)-amide] as the compound, how does the melting point read?
Answer: 60.3 to 62.4 °C

Question: For `COc1ccccc1Nc1nc(C)c(C(=O)N2CC=C(c3ccc(F)cc3)CC2)s1` [Compound 163, [4-(4-fluoro-phenyl)-3,6-dihydro-2H-pyridin-1-yl]-[2-(2-methoxy-phenylamino)-4-methyl-thiazol-5-yl]-methanone], which melting point is on record?
Answer: 144.4 to 149.2 °C

Question: With `Cc1nc(Nc2ccc(Cl)cc2)sc1C(=O)NNc1ccc([N+](=O)[O-])cc1[N+](=O)[O-]` as the compound, how does the melting point read?
Answer: 138 to 164.7 °C

Question: Which melting point does the source give for `Cc1nc(NC(=O)c2ccc(C#N)cc2)sc1C(=O)N[C@H]1CCC[C@@H]1OCc1ccccc1` [Compound 181, 2-(4-cyano-benzoylamino)-4-methyl-thiazole-5-carboxylic acid ((1S,2S)-2-benzyloxycyclopent-1-yl) amide] here?
Answer: 177.2 to 181.4 °C

Question: For `COc1ccccc1Nc1nc(C)c(C(=O)Nc2ccc(Cn3cccn3)cc2)s1` [Compound 166, 2-(2-methoxy-phenylamino)-4-methyl-thiazole-5-carboxylic acid (4-pyrazol-1-ylmethyl-phenyl)-amide], which melting point is on record?
Answer: 211.3 to 214.4 °C

Question: For `COc1ccccc1Nc1nc(C)c(C(=O)NC2CCCc3ccccc32)s1` (stereo not shown) [Compound 173, 2-(2-methoxy-phenylamino)-4-methyl-thiazole-5-carboxylic acid (1,2,3,4-tetrahydro-naphthalen-1-yl)-amide], which melting point is on record?
Answer: 129.4 °C

Question: For `COc1ccccc1Nc1nc(C)c(C(=O)NCc2ccccc2-c2ccccc2)s1` [Compound 143, 2-(2-methoxy-phenylamino)-4-methyl-thiazole-5-carboxylic acid (biphenyl-2-ylmethyl)-amide], which melting point is on record?
Answer: 128.4 to 132 °C

Question: Which melting point does the source give for `COc1ccccc1N(C)c1nc(C)c(C(=O)N[C@H](CO)c2ccccc2)s1` [Compound 150, 2-[(2-methoxy-phenyl)-methyl-amino]-4-methyl-thiazole-5-carboxylic acid ((S)-2-hydroxy-1-phenyl-ethyl)-amide] here?
Answer: 119.4 °C

Question: For `COc1ccccc1Nc1nc(C)c(C(=O)NCc2ccccc2C)s1` [Compound 140, 2-(2-methoxy-phenylamino)-4-methyl-thiazole-5-carboxylic acid 2-methyl-benzylamide], which melting point is on record?
Answer: 118.3 to 121.7 °C

Question: Which melting point does the source give for `Cc1nc(NC(=O)c2ccccc2)sc1C(=O)N[C@H]1CCC[C@@H]1OCc1ccccc1` [Compound 179, 2-benzoylamino-4-methyl-thiazole-5-carboxylic acid ((1S,2S)-2-benzyloxycyclopent-1-yl) amide] here?
Answer: 97.4 to 110.6 °C

Question: Which melting point does the source give for `COc1ccccc1Nc1nc(C)c(C(=O)NCc2cccc(C)c2)s1` [Compound 141, 2-(2-methoxy-phenylamino)-4-methyl-thiazole-5-carboxylic acid 3-methyl-benzylamide] here?
Answer: 148.1 to 149.9 °C

Question: With `COc1ccccc1Nc1nc(C)c(C(=O)N2CCCC2c2ccccc2)s1` (stereo not shown) [Compound 176, [2-(2-methoxy-phenylamino)-4-methyl-thiazol-5-yl]-(2-phenyl-pyrrolidin-1-yl)-methanone] as the compound, how does the melting point read?
Answer: 113.5 to 117.6 °C

Question: With `COc1ccccc1N(C(C)=O)c1nc(C)c(C(=O)N[C@H]2CCC[C@@H]2OCc2ccccc2)s1` [Compound 129, 2-[acetyl-(2-methoxy-phenyl)-amino]-4-methyl-thiazole-5-carboxylic acid ((1S,2S)-2-benzyloxycyclopent-1-yl) amide] as the compound, how does the melting point read?
Answer: 145.8 to 149 °C

Question: Which melting point does the source give for `COc1ccccc1Nc1ncc(C(=O)NCc2ccc(F)c(C(F)(F)F)c2)[nH]1` [Compound 226, 2-(2-methoxy-phenylamino)-3H-imidazole-4-carboxylic acid 4-fluoro-3-trifluoromethyl-benzylamide] here?
Answer: 227.9 to 230 °C

Question: For `COc1ccc(CNC(=O)c2cnc(Nc3ccccc3OC)[nH]2)c(OC)c1` [Compound 225, 2-(2-methoxy-phenylamino)-3H-imidazole-4-carboxylic acid 2,4-dimethoxy-benzylamide], which melting point is on record?
Answer: 134.1 to 136.2 °C

Question: Which melting point does the source give for `COc1ccccc1Nc1nc(C)c(C(=O)N2CCC(Cc3ccccc3)CC2)s1` [Compound 174, (4-benzyl-piperidin-1-yl)-[2-(2-methoxy-phenylamino)-4-methyl-thiazol-5-yl]-methanone] here?
Answer: 166.8 to 169.2 °C

Question: For `COC(=O)[C@H](NC(=O)c1sc(Nc2ccccc2OC)nc1C)c1ccccc1` [Compound 151, (R)-{[2-(2-methoxy-phenylamino)-4-methyl-thiazole-5-carbonyl]-amino}-phenyl-aceticacid methyl ester], which melting point is on record?
Answer: 131.4 to 137.9 °C

Question: With `COc1ccccc1Nc1nc(C)c(C(=O)NCc2ccc(-c3ccccc3)cc2)s1` [Compound 145, 2-(2-methoxy-phenylamino)-4-methyl-thiazole-5-carboxylic acid (biphenyl-4-ylmethyl)-amide] as the compound, how does the melting point read?
Answer: 189.6 to 191.2 °C

Question: With `COc1ccc(CNC(=O)c2oc(Nc3ccccc3OC)nc2C)c(OC)c1` [Compound 222, 2-(2-methoxy-phenylamino)-4-methyl-oxazole-5-carboxylic acid 2,4-dimethoxy-benzylamide] as the compound, how does the melting point read?
Answer: 68.7 to 82.4 °C

Question: Which melting point does the source give for `COc1ccccc1Nc1nc(C)c(C(=O)N[C@@H](C(=O)O)c2ccccc2)s1` [Compound 212, (R)-{[2-(2-methoxy-phenylamino)-4-methyl-thiazole-5-carbonyl]-amino}-phenyl-aceticacid] here?
Answer: 258.6 to 262.9 °C
